Legend:
[1] = Tmax in fasted Wistar rat at 5 mg/kg, po; format: ADME, organism-based; set-up: dose 5 mg/kg, route oral; conditions: in vivo
[2] = Half life in beagle dog at 1 mg/kg, iv; format: ADME, organism-based, Canis lupus familiaris; set-up: dose 1 mg/kg, route intravenous; conditions: in vivo
[3] = Half life in Wistar rat at 5 mg/kg, iv; format: ADME, organism-based; set-up: dose 5 mg/kg, route intravenous; conditions: in vivo
[4] = target: T1, 5-hydroxytryptamine receptor 3A (Homo sapiens, UniProt P46098); assay: Binding affinity to 5HT3 receptor
T1 sequence (P46098 whole entry): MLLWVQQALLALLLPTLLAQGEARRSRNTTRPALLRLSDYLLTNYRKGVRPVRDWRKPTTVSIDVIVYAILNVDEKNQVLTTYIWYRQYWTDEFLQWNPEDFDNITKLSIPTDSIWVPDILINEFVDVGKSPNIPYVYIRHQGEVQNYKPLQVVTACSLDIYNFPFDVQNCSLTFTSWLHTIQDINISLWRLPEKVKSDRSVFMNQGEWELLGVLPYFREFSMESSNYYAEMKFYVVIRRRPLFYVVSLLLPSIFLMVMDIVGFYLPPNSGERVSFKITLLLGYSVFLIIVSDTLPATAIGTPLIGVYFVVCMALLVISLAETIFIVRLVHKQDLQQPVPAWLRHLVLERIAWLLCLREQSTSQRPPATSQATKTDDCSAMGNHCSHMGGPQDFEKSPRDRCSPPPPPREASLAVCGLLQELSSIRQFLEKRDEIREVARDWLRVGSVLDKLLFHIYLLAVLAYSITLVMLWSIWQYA

[5] = target: 5-hydroxytryptamine receptor 7 (Homo sapiens, UniProt P34969); assay: Binding affinity to 5HT7 receptor
5-hydroxytryptamine receptor 7, sequence (P34969 whole entry): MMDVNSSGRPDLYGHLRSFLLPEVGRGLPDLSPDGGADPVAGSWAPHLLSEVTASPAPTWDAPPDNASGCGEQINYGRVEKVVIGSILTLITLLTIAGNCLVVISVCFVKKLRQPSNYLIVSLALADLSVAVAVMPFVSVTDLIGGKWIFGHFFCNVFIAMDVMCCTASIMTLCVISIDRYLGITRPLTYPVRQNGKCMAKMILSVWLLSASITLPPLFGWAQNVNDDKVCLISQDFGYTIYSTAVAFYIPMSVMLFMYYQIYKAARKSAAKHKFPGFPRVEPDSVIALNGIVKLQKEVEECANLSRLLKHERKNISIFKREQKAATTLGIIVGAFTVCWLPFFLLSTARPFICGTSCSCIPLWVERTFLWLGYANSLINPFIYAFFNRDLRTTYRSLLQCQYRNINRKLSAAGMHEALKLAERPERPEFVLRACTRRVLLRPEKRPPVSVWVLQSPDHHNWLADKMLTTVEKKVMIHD

[6] = Ratio of drug uptake in brain to plasma in Wistar rat at 10 mg/kg, po after 1 hr; format: ADME, organism-based; set-up: dose 10 mg/kg, route oral; conditions: read-out: BPR
Cytochrome P450 3A4 = Cytochrome P450 3A4 (Homo sapiens, UniProt P08684); assay: Inhibition of CYP3A4 in human liver microsomes using midazolam as substrate after 5 mins by LC-MS/MS analysis in presence of NADPH
Cytochrome P450 3A4, sequence (P08684 whole entry): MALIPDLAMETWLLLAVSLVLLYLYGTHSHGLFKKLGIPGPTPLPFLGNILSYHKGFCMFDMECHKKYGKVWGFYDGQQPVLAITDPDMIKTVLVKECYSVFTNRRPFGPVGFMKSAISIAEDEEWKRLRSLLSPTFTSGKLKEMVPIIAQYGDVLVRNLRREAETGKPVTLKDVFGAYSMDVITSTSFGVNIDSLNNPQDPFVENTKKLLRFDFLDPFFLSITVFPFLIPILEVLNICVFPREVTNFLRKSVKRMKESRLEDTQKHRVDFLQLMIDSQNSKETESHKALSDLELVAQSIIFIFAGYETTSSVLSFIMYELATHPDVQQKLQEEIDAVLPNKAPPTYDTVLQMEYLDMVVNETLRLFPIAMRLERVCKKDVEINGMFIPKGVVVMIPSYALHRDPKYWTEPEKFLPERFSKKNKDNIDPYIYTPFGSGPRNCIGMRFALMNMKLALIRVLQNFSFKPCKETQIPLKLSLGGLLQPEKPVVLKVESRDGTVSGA

What does the source list for `COc1ccc(S(=O)(=O)n2cc(C)c3cc(Cl)cnc32)cc1NC1CCN(C)CC1`?
Tmax [1]: 1 h; half-life [2]: 2.3 h; half-life [3]: 1.7 h; IC50 [4]: > 10 µM; Ki [5]: 1.96 µM; Kp at 1 h [6]: 0.9; IC50 (Cytochrome P450 3A4): 10 µM

Reference: ChEMBL document CHEMBL2176989, “Design, synthesis, and pharmacological evaluation of piperidin-4-yl amino aryl sulfonamides: novel, potent, selective, orally active, and brain penetrant 5-HT₆ receptor antagonists” (J Med Chem, 2012)
